Entries after “also recorded” stand apart in the source; their conditions may differ.
Experiments:
[1] = molecular target: T1, Thymidine phosphorylase (TP) (Escherichia coli, UniProt P07650); assay: Mechanistic (kinetic) studies of TP inhibition; format: biochemical; conditions: E. coli TP; for Type of Inhibition: Lineweaver–Burk, Dixon plots; for Ki: inhibitor 200–500 µM, thymidine 0.1875–1.5 mM, read-out: Ki ± SEM
T1 construct: purchased Sigma Aldrich, USA
Description: Kinetic studies are used for the investigation of chemical reactions in terms of their reaction rates, reaction mechanisms, and the factors that affect these parameters. Herein, it is used determine the type/mechanism of inhibition of dihydropyrimidone derivatives.
(§1) EZ-FIT, enzyme kinetics software (Perrella Scientific, Inc., Amherst, GA, USA) was used to calculate the IC50 values. In order to analyse the kinetic parameter, Grafit version 7.0 (Erithacus Software Ltd., Horley, UK) was used.

[2] = molecular target: T1, Thymidine phosphorylase (TP); assay: Thymidine phosphorylase inhibition assay (spectrophotometric, 290 nm); format: biochemical, E. coli; conditions: for IC50: E. coli TP, n = 3, NA: not active, read-out: Thymidine Phosphorylase Inhibitory Activity IC50 ± SEM; for inhibition at 500 µM: pH 7, E. coli TP, test compound 10 µL of 0.5 mM in 200 µL, thymidine substrate, 30 °C, pH 7.0, read-out: Thymidine Phosphorylase Inhibitory Activity % Inhibition
Method: Thymidine phosphorylase (source: E. coli, EC Number 2.4.2.4), thymidine (substrate), and potassium phosphate monobasic (as buffer) were acquired from Sigma Aldrich, USA. […] Dimethylsulfoxide (DMSO), used as a solvent, was obtained from Fisher Scientific, Schwerte, Germany.
Reaction was performed in 96-well plates and in triplicates. The 200 µL reaction mixture was comprised of 10 µL of the test compound (0.5 mM; dissolved in DMSO), 150 µL of potassium phosphate buffer (pH 7.0, 50 mM), and 20 µL of TP enzyme (0.058 unit/well). The 96-well plate containing all these reagents was then incubated at 30 °C for 10 min.
SoftMax Pro 4.8 software (Molecular Devices, San Jose, CA, USA) was used to analyse the results.
as §1

MTT cytotoxicity assay = format: cell-based; conditions: 3T3 mouse fibroblast cells, 48 h, test compounds 1 to 30 µM, NC: non-cytotoxic, read-out: Cytotoxicity Studies Cell Viability (%)
Method: (§2) Cytotoxicity of active compounds were evaluated employing a standard MTT calorimetric assay. Mouse fibroblast (3T3 cell line) acquired from American Type Culture Collection (ATCC), Virginia, USA, was cultured in DMEM (Dulbecco’s modified eagle medium). In total, 5% FBS (fetal bovine serum), penicillin (100 IU/mL), and streptomycin ([…]) were then added to the medium in […] flasks, and kept in a CO2 incubator at 37 °C. The harvested cell was then diluted with a specific medium. Haemocytometer was used for the quantification of cells. After that, the culture of cell having concentration of 5x104 (cells/mL) was prepared, inoculated into 96-well plates (100 µL/well), and then incubated overnight. After incubation, the old medium was removed, and fresh medium (200 µL) was added. Then different concentrations of test compounds (ranging from 1 to 30 µM) were added. After incubation of 48 h, each well received 200 µL of MTT dye (0.5 mg/mL), and further incubated for a duration of 4 h. After 4 h, 100 µL of DMSO was introduced into each well of the 96-well plate. The reduction of MTT to formazan was measured by recording absorbance at 540 nm with the help of a microplate reader (SpectraMax 384, Molecular Devices, San Jose, CA, USA).

[3] = tested on: 3T3 (mouse fibroblast) cell line; assay: MTT cytotoxicity assay; format: cell-based
Method: as §2

E. coli TP = tested on: E. coli TP; design: method as in earlier work; conditions: read-out: 50% inhibitory concentration (IC50); purified E. coli TP; conversion of dThd to Thy; ref [5]; cited from earlier work

T1 sequence (P07650 whole entry): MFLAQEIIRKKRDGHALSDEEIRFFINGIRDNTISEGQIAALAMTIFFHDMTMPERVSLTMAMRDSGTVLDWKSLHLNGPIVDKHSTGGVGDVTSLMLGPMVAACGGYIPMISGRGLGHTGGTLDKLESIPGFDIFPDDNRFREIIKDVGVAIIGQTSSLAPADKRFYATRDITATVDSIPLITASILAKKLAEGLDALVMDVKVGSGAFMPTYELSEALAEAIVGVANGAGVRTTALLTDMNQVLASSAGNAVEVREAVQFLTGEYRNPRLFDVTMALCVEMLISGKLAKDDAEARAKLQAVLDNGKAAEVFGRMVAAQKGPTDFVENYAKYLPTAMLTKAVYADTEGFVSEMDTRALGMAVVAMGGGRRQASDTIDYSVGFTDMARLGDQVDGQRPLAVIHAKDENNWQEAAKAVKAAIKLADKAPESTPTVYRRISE

For `COC(=O)C1=C(C)NC(=O)NC1c1ccc([N+](=O)[O-])cc1` (stereo not drawn) [Compound 12, Methyl 6-methyl-4-(4-nitrophenyl)-2-oxo-1,2,3,4-tetrahydropyrimidine-5-carboxylate], the “Type of Inhibition” value [1] was “Non-Competitive”, the Ki [1] was 297.6 ± 0.006 µM and the IC50 [2] was 303.5 ± 0.4 µM. For the same compound, the inhibition at 500 µM [2] was 91.5%, the viability at 48 h (MTT cytotoxicity assay) was 57% and the “Cytotoxicity against 3T3 cells (in words)” value (shortened to “Cytotoxicity”) [3] was “non-cytotoxic; also recorded: non-toxic”.

For `Oc1ncnc2c1ncn2[C@@H]1O[C@H](COC(c2ccccc2)(c2ccccc2)c2ccccc2)[C@@H](O)[C@H]1O` [KIN59, 5′-O-tritylinosine], the IC50 (E. coli TP) is listed as 44 ± 3 µM.

For `COC(=O)C1=C(C)NC(=O)NC1c1ccccc1` (stereo not drawn) [Compound 1, Methyl 6-methyl-2-oxo-4-phenyl-1,2,3,4-tetrahydropyrimidine-5-carboxylate], the “Type of Inhibition” value [1] was “Non-Competitive”, the Ki [1] was 326.3 ± 0.002 µM and the IC50 [2] was 314.3 ± 0.9 µM. For the same compound, the inhibition at 500 µM [2] was 84%, the viability at 48 h (MTT cytotoxicity assay) was 57% and the “Cytotoxicity” value [3] was “non-cytotoxic; also recorded: non-toxic”.

`COC(=O)C1=C(C)NC(=O)NC1c1ccc(Cl)cc1` (stereo not drawn) [Compound 34, Methyl 4-(4-chlorophenyl)-6-methyl-2-oxo-1,2,3,4-tetrahydropyrimidine-5-carboxylate] showed an IC50 [2] of 443.9 ± 0.9 µM, an inhibition at 500 µM [2] of 66.3% and a viability at 48 h (MTT cytotoxicity assay) of 72%.

Compound `COC(=O)C1=C(C)NC(=O)NC1c1cc(Br)c(OC)c(OC)c1` (stereo not drawn) [Compound 22, Methyl 4-(3-bromo-4,5-dimethoxyphenyl)-6-methyl-2-oxo-1,2,3,4-tetrahydropyrimidine-5-carboxylate] has an IC50 [2] of 394 ± 4.3 µM, an inhibition at 500 µM [2] of 61.9% and a viability at 48 h (MTT cytotoxicity assay) of 76%.

Work on `COC(=O)C1=C(C)NC(=O)NC1c1cccc(OC)c1OC` (stereo not drawn) [Compound 20, Methyl 4-(2,3-dimethoxyphenyl)-6-methyl-2-oxo-1,2,3,4-tetrahydropyrimidine-5-carboxylate] yielded an IC50 [2] of 414.7 ± 1.6 µM, an inhibition at 500 µM [2] of 67.8% and a viability at 48 h (MTT cytotoxicity assay) of 62%.

Compound `COC(=O)C1=C(C)NC(=O)NC1c1ccc(C)o1` (stereo not drawn) [Compound 11, Methyl 6-methyl-4-(5-methylfuran-2-yl)-2-oxo-1,2,3,4-tetrahydropyrimidine-5-carboxylate] has an IC50 [2] of 386 ± 0.6 µM, an inhibition at 500 µM [2] of 76.9% and a viability at 48 h (MTT cytotoxicity assay) of 77%.

Compound `COC(=O)C1=C(C)NC(=O)NC1c1ccc(OC)cc1` (stereo not drawn) [Compound 5, Methyl 4-(4-methoxyphenyl)-6-methyl-2-oxo-1,2,3,4-tetrahydropyrimidine-5-carboxylate] has an IC50 [2] of 387.4 ± 2 µM, an inhibition at 500 µM [2] of 52.9% and a viability at 48 h (MTT cytotoxicity assay) of 72%.

In the case of `COC(=O)C1=C(C)NC(=O)NC1c1ccc(C(F)(F)F)cc1` (stereo not drawn) [Compound 33, Methyl 6-methyl-2-oxo-4-(4-(trifluoromethyl)phenyl)-1,2,3,4-tetrahydropyrimidine-5-carboxylate], the “Type of Inhibition” value [1] is reported as “Non-Competitive”, the Ki [1] is reported as 311.4 ± 0.004 µM and the IC50 [2] is reported as 322.6 ± 1.6 µM. The inhibition at 500 µM [2] was 73.6%, the viability at 48 h (MTT cytotoxicity assay) was 61% and the “Cytotoxicity” value [3] was “non-cytotoxic; also recorded: non-toxic”.

`COC(=O)C1=C(C)NC(=O)NC1c1ccc(C)s1` (stereo not drawn) [Compound 32, Methyl 6-methyl-4-(5-methylthiophen-2-yl)-2-oxo-1,2,3,4-tetrahydropyrimidine-5-carboxylate] gave an IC50 [2] of 485.7 ± 1.5 µM, an inhibition at 500 µM [2] of 58.3% and a viability at 48 h (MTT cytotoxicity assay) of 85%.

For `O=c1[nH]c(=O)c2cc[nH]c2[nH]1` [7-Deazaxanthine, reference compound], the “Type of Inhibition” value [1] was “Non-Competitive” and the inhibition at 500 µM [2] was 82%.

Work on `COC(=O)C1=C(C)NC(=O)NC1c1ccc(O)cc1` (stereo not drawn) [Compound 13, Methyl 4-(4-hydroxyphenyl)-6-methyl-2-oxo-1,2,3,4-tetrahydropyrimidine-5-carboxylate] yielded an IC50 [2] of 448.9 ± 4.1 µM, an inhibition at 500 µM [2] of 56.2% and a viability at 48 h (MTT cytotoxicity assay) of 72%.

In the case of `CCCCC1NC(=O)NC(C)=C1C(=O)OC` (stereo not drawn) [Compound 10, Methyl 4-butyl-6-methyl-2-oxo-1,2,3,4-tetrahydropyrimidine-5-carboxylate], the IC50 [2] is reported as 389 ± 0.6 µM, the inhibition at 500 µM [2] is reported as 92.7% and the viability at 48 h (MTT cytotoxicity assay) is reported as 66%.

Reference: PMC10143232, “Dihydropyrimidone Derivatives as Thymidine Phosphorylase Inhibitors: Inhibition Kinetics, Cytotoxicity, and Molecular Docking” (Molecules, 2023)
